Results as given in US12611406B2, “Oxopiperazine derivatives for the treatment of cancer” (Inthera Bioscience AG, priority 2020, dated 2026).
“Also recorded” adds a separate entry of the source. Read-outs that look alike come from different tables or passages of the source.

Experiments:
Type in all cases: in vivo
[1] = Single dose oral gavage or intravenous PK in female cynomolgus monkeys, plasma; conditions: for clearance / Vd / AUC(0-inf) / AUC(0-t) / Cmax / Tmax / half-life: female, cynomolgus monkey, plasma; for clearance: read-out: cleared (Cl), mean rate (converted); for Vd: read-out: mean volume of distribution (Vz)
Description: The objective of the study was to determine the PK profile of Compound 1 following a single oral gavage or intravenous injection administration on 5 different occasions to female cynomolgus monkeys.
Compound 1, was administered as consecutive single doses on 5 occasions, separated by a washout period, by either oral gavage (4 and 12 mg/kg, Days 1 and 8) or by slow bolus intravenous (IV) injection (0.2 and 0.6 mg/kg, Days 15 and 22) to a group of female monkeys. In a subset of dosing the influence of grapefruit juice was evaluated (Day 34). Each single dose (Days 1, 8, 15, 22, and 34) was separated by a 7-day washout period. Blood samples were collected on Days 1, 8, 15, 22 and 34 at selected time points, i.e., 15 min, 30 min, as well as 1, 2, 4, 6, 8, and 24 hours relative to treatment for analysis of the concentration of Compound 1 in plasma and subsequent calculation of PK parameters. Additional parameters monitored included mortality, clinical observations and body weight.

[2] = 14-day daily oral repeated-dose exploratory study in CD-1 mice (mesylate salt); conditions: for AUC(0-t) / Cmax: CD-1, mouse, in vivo, po
Description: This study explored the TK profile of Compound 1 after 14 days once daily oral dosing in male and female CD-1 mice.
Compound 1 (mesylate salt) was administered once daily for 14 consecutive days by oral gavage to groups of CD-1 mice (n=8/sex/group) at dose levels of 0 (control), 1, 5, 10 or 15 mg/kg/day. A suspension of 0.5% Methylcellulose (w/v) and 0.1% Polysorbate 80 (Tween 80) (v/v) was used as vehicle. For TK investigations sparse blood sampling was performed on treatment Days 1 and 14; three blood samples per animal and day were collected either pre-dose, 2 and 8 hours after administration (4 male and female animals per group) or 1, 4, and 24 hours (remaining 4 male and 4 female animals per group) after administration.

[3] = 5 consecutive days oral toxicity study in CD-1 mice; conditions: 30 mg/kg/day orally once daily for 5 consecutive days
Description: The toxicity of Compound 1 was assessed for several dosing regimens for CD-1 mice, Beagle dogs, and cynomolgus monkeys.

[4] = 28-day once weekly oral repeated-dose DRF TK study in Beagle dogs (mesylate salt), plasma; conditions: for AUC / Cmax: both sexes, Beagle, dog, plasma, po
Description: The objective of the study was to determine the TK profile of Compound 1 following 4 weekly oral administrations to Beagle dog and to assess reversibility of any changes following a 13-day recovery period.
The test item Compound 1 (mesylate salt) was administered in 4 weekly doses by oral gavage to groups of Beagle dogs (n=2/sex/group) at dose levels of 10, 15, and 20 mg/kg bodyweight per week. A suspension of 0.5% methylcellulose (w/v) in sterile water served as vehicle. Blood samples for PK analysis were collected for each dosing day (Day 1, 8, 15, and 22) at pre-dose, 0.25, 0.5, 1, 2, 4, 6, 8, 12, and 24 hours after administration.
Total plasma concentrations of Compound 1 were analyzed using a qualified LC-MS/MS method.
Dosing at 15 mg/kg/adm was limited to 2 weekly doses, since animals were subjected to necropsy investigation 3 days after the second dose (Day 8) in order to investigate possible macroscopic changes during the treatment period. n.d.: not determined. AUC parameters were calculated using GraphPad Prism version 9.

[5] = 10 mg/kg, 10 mg/kg weekly, Day 1
[6] = 10 mg/kg, 10 mg/kg weekly, Day 8
[7] = 10 mg/kg, 10 mg/kg weekly, Day 15
[8] = 10 mg/kg, 10 mg/kg weekly, Day 22
[9] = 15 mg/kg, 15 mg/kg weekly, Day 1
[10] = 15 mg/kg, 15 mg/kg weekly, Day 8

**Q.** Which clearance ([1]; Day 15 (IV 0.2 mg/kg)) does the source give for CC(C)C[C@@H]1NCCN([C@@H](CC(C)C)C(=O)N2CCC3(C[C@@H]2C)OCC(CN2CCCC2)CO3)C1=O (stereo partly drawn) [Compound 1, (S)-3-isobutyl-1-((S)-4-methyl-1-((S)-8-methyl-3-(pyrrolidin-1-ylmethyl)-1,5-dioxa-9-azaspiro[5.5]undecan-9-yl)-1-oxopentan-2-yl)piperazin-2-one] here?
**A.** 43.2 mL/min/kg

**Q.** What about the Vd ([1]; Day 15 (IV 0.2 mg/kg)) of the same molecule?
**A.** 17.4 ± 2.2 L/kg

**Q.** And the clearance ([1]; Day 22 (IV 0.6 mg/kg))?
**A.** 41 mL/min/kg

**Q.** And the Vd ([1]; Day 22 (IV 0.6 mg/kg))?
**A.** 16.9 ± 1.91 L/kg

**Q.** What about the AUC(0-inf) ([1]; IV 0.2 mg/kg) of the same molecule?
**A.** 77.4 ng·h/mL

**Q.** And the AUC(0-t) ([1]; IV 0.2 mg/kg)?
**A.** 76.2 ng·h/mL

**Q.** And the Cmax ([1]; IV 0.2 mg/kg)?
**A.** 47.6 ng/mL

**Q.** And the Tmax ([1]; IV 0.2 mg/kg)?
**A.** 4.8 min

**Q.** What about the half-life ([1]; IV 0.2 mg/kg) of the same molecule?
**A.** 278 min

**Q.** And the AUC(0-inf) ([1]; IV 0.6 mg/kg)?
**A.** 244 ng·h/mL

**Q.** And the AUC(0-t) ([1]; IV 0.6 mg/kg)?
**A.** 240 ng·h/mL

**Q.** What about the Cmax ([1]; IV 0.6 mg/kg) of the same molecule?
**A.** 162 ng/mL

**Q.** And the Tmax ([1]; IV 0.6 mg/kg)?
**A.** 4.8 min

**Q.** What about the half-life ([1]; IV 0.6 mg/kg) of the same molecule?
**A.** 284 min

**Q.** What about the AUC(0-inf) ([1]; po 4 mg/kg) of the same molecule?
**A.** 17.3 ng·h/mL

**Q.** What about the AUC(0-t) ([1]; po 4 mg/kg) of the same molecule?
**A.** 16.9 ng·h/mL

**Q.** And the Cmax ([1]; po 4 mg/kg)?
**A.** 5.52 ng/mL

**Q.** And the Tmax ([1]; po 4 mg/kg)?
**A.** 30 min

**Q.** What about the half-life ([1]; po 4 mg/kg) of the same molecule?
**A.** 282 min

**Q.** And the AUC(0-inf) ([1]; po 12 mg/kg)?
**A.** 133 ng·h/mL

**Q.** And the AUC(0-t) ([1]; po 12 mg/kg)?
**A.** 130 ng·h/mL

**Q.** What about the Cmax ([1]; po 12 mg/kg) of the same molecule?
**A.** 53.6 ng/mL

**Q.** What about the Tmax ([1]; po 12 mg/kg) of the same molecule?
**A.** 49.8 min

**Q.** What about the half-life ([1]; po 12 mg/kg) of the same molecule?
**A.** 328 min

**Q.** And the clinical signs ([1]; intravenous doses up to 0.6 mg/kg)?
**A.** decrease in appetite

**Q.** What about the clinical signs ([1]; single oral doses up to 12 mg/kg) of the same molecule?
**A.** did not result in any adverse clinical signs

**Q.** What about the “Cmax increase with grapefruit juice prior to dosing” value ([1]; vs animals without grapefruit juice, Day 34) of the same molecule?
**A.** 2 fold

**Q.** And the tolerability ([2]; 1, 5, 10, and 15 mg/kg/day orally once daily for 14 consecutive days)?
**A.** well-tolerated

**Q.** What about the AUC(0-t) ([2]; female, 1 mg/kg, F, Day 1) of the same molecule?
**A.** 33.1 ng·h/mL

**Q.** What about the Cmax ([2]; female, 1 mg/kg, F, Day 1) of the same molecule?
**A.** 6.4 ng/mL

**Q.** What about the AUC(0-t) ([2]; female, 1 mg/kg, F, Day 14) of the same molecule?
**A.** 112 ng·h/mL

**Q.** What about the Cmax ([2]; female, 1 mg/kg, F, Day 14) of the same molecule?
**A.** 16.6 ng/mL

**Q.** What about the AUC(0-t) ([2]; female, 5 mg/kg, F, Day 1) of the same molecule?
**A.** 258 ng·h/mL

**Q.** And the Cmax ([2]; female, 5 mg/kg, F, Day 1)?
**A.** 67.6 ng/mL

**Q.** What about the AUC(0-t) ([2]; female, 5 mg/kg, F, Day 14) of the same molecule?
**A.** 478 ng·h/mL

**Q.** And the Cmax ([2]; female, 5 mg/kg, F, Day 14)?
**A.** 115 ng/mL

**Q.** What about the AUC(0-t) ([2]; female, 10 mg/kg, F, Day 1) of the same molecule?
**A.** 304 ng·h/mL

**Q.** What about the Cmax ([2]; female, 10 mg/kg, F, Day 1) of the same molecule?
**A.** 60.5 ng/mL

**Q.** What about the AUC(0-t) ([2]; female, 10 mg/kg, F, Day 14) of the same molecule?
**A.** 690 ng·h/mL

**Q.** What about the Cmax ([2]; female, 10 mg/kg, F, Day 14) of the same molecule?
**A.** 97.7 ng/mL

**Q.** And the AUC(0-t) ([2]; female, 15 mg/kg, F, Day 1)?
**A.** 711 ng·h/mL

**Q.** And the Cmax ([2]; female, 15 mg/kg, F, Day 1)?
**A.** 140 ng/mL

**Q.** And the AUC(0-t) ([2]; female, 15 mg/kg, F, Day 14)?
**A.** 1090 ng·h/mL

**Q.** And the Cmax ([2]; female, 15 mg/kg, F, Day 14)?
**A.** 151 ng/mL

**Q.** And the AUC(0-t) ([2]; male, 1 mg/kg, M, Day 1)?
**A.** 55.4 ng·h/mL

**Q.** And the Cmax ([2]; male, 1 mg/kg, M, Day 1)?
**A.** 10.9 ng/mL

**Q.** What about the AUC(0-t) ([2]; male, 1 mg/kg, M, Day 14) of the same molecule?
**A.** 108 ng·h/mL

**Q.** What about the Cmax ([2]; male, 1 mg/kg, M, Day 14) of the same molecule?
**A.** 16.3 ng/mL

**Q.** What about the AUC(0-t) ([2]; male, 5 mg/kg, M, Day 1) of the same molecule?
**A.** 225 ng·h/mL

**Q.** And the Cmax ([2]; male, 5 mg/kg, M, Day 1)?
**A.** 42.9 ng/mL

**Q.** What about the AUC(0-t) ([2]; male, 5 mg/kg, M, Day 14) of the same molecule?
**A.** 607 ng·h/mL

**Q.** What about the Cmax ([2]; male, 5 mg/kg, M, Day 14) of the same molecule?
**A.** 90 ng/mL

**Q.** What about the AUC(0-t) ([2]; male, 10 mg/kg, M, Day 1) of the same molecule?
**A.** 361 ng·h/mL

**Q.** And the Cmax ([2]; male, 10 mg/kg, M, Day 1)?
**A.** 64.8 ng/mL

**Q.** And the AUC(0-t) ([2]; male, 10 mg/kg, M, Day 14)?
**A.** 782 ng·h/mL

**Q.** And the Cmax ([2]; male, 10 mg/kg, M, Day 14)?
**A.** 105 ng/mL

**Q.** And the AUC(0-t) ([2]; male, 15 mg/kg, M, Day 1)?
**A.** 689 ng·h/mL

**Q.** What about the Cmax ([2]; male, 15 mg/kg, M, Day 1) of the same molecule?
**A.** 133 ng/mL

**Q.** What about the AUC(0-t) ([2]; male, 15 mg/kg, M, Day 14) of the same molecule?
**A.** 717 ng·h/mL

**Q.** What about the Cmax ([2]; male, 15 mg/kg, M, Day 14) of the same molecule?
**A.** 102 ng/mL

**Q.** And the tolerability [3]?
**A.** well-tolerated

**Q.** What about the clinical signs ([4]; 15 mg/kg/adm, limited to 2 oral doses (Days 1 and 8)) of the same molecule?
**A.** reduced food and water intake

**Q.** And the AUC [4, 5]?
**A.** 1720 ng·h/mL

**Q.** And the Cmax [4, 5]?
**A.** 536 ng/mL

**Q.** What about the AUC [4, 6] of the same molecule?
**A.** 1590 ng·h/mL

**Q.** What about the Cmax [4, 6] of the same molecule?
**A.** 512 ng/mL

**Q.** And the AUC [4, 7]?
**A.** 1660 ng·h/mL

**Q.** What about the Cmax [4, 7] of the same molecule?
**A.** 497 ng/mL

**Q.** And the AUC [4, 8]?
**A.** 1170 ng·h/mL

**Q.** What about the Cmax [4, 8] of the same molecule?
**A.** 360 ng/mL

**Q.** And the AUC [4, 9]?
**A.** 2630 ng·h/mL

**Q.** What about the Cmax [4, 9] of the same molecule?
**A.** 752 ng/mL

**Q.** And the AUC [4, 10]?
**A.** 2300 ng·h/mL

**Q.** And the Cmax [4, 10]?
**A.** 506 ng/mL

**Q.** And the AUC ([4]; 20 mg/kg, Day 1)?
**A.** 3010 ng·h/mL

**Q.** And the Cmax ([4]; 20 mg/kg, Day 1)?
**A.** 994 ng/mL

**Q.** And the tolerability ([4]; single oral administration of 20 mg/kg/adm, 20 mg/kg)?
**A.** serious adverse event (SAE) on day 5; also recorded: not tolerated in one female Beagle dog

**Q.** What about the tolerability ([4]; weekly oral for 4 consecutive weeks at 10 mg/kg/adm) of the same molecule?
**A.** tolerated
